Data: patent US12295936B2, “Immunomodulating urea azalides” (Zoetis Services LLC, priority 2020, dated 2025)
Like-named read-outs stand apart in the source and are kept apart here.

Experiments:
IL-1β = assay: LPS-stimulated whole bovine blood assay, MSD cytokine detection; assay type: cell-based; settings: overstimulation of IL-1β, LPS-stimulated bovine whole blood
Procedure: (§1) The effect of multiple cytokines was not easily quantified using single cell types. Therefore, a fresh whole bovine blood assay was developed with LPS as a stimulant (TLR-4 agonist) and with IL-1β and TNF-α as the read-out. Compounds of the invention were evaluated against a positive control for their ability to inhibit LPS-induced IL-1β and TNF-α as an overall evaluation of relative potency and modulation of target pathways (Table 6).
In order to correlate RNA sequencing data to cytokine changes the whole blood assay was utilized. […] The enhancement result represents an overall stimulation of cytokine levels due to cellular stress or potential toxicity with increasing concentrations of the compound, representing a typical bell shape response curve for immunomodulatory activity.
In the bovine whole blood in vitro screening assay the inhibition of TNFα as induced by stimulation by lipopolysaccharide (LPS) and as measured by half the maximal inhibitory concentration (IC50) is recognized as the primary biomarker of immunomodulation potency upon pretreatment with the compounds of the invention.

TNF-α = assay: as above; assay type: cell-based; settings: LPS-stimulated bovine whole blood, read-out: TNF-α (IC50 μM)
Procedure: as §1, with “Therefore,” for “The effect of multiple cytokines was not easily quantified using single cell types. Therefore,”
In the bovine whole blood in vitro screening assay the inhibition of TNFα as induced by stimulation by lipopolysaccharide (LPS) and as measured by half the maximal inhibitory concentration (IC50) is recognized as the primary biomarker of immunomodulation potency upon pretreatment with the compounds of the invention. IL-1β is a mediator of the inflammation response and is involved in a number of cellular activities including proliferation, differentiation and apoptosis. IL-1β is also released upon cellular stress or cytotoxicity or upon TLR stimulation. In the bovine whole blood assay the stimulation of IL-1β release upon increasing concentration of test compound is seen as a potential cellular toxicity signal as induced by the test compound. In order to estimate a therapeutic index from the in vitro assay a differential between the TNFα IC50 (immunomodulation potency) versus the perceived cellular toxicity concentration (IL-1β release or overstimulation) was utilized.

[1] = test system: BRD pathogens, M. haemolytica and P. multocida; assay: MIC screening panel of BRD pathogens (antibacterial / non-antibacterial)
[2] = read-out: antibacterial / non-antibacterial (MIC for the BRD pathogens)

IC50 (TNF-α) [µM] | IC50 (TNF-α; Bos taurus) [µM] | Structure (SMILES) | IL-1β OS of LPS (IL-1β) [µM] | MIC [1, 2] [µg/mL] | MIC ([1]; read-out: MIC ≤64 μg/mL for at least one of the bacterial strains (flag * at Ex #)) [µg/mL]
 | 60 | CC[C@H]1OC(=O)[C@H](C)[C@@H](O[C@H]2C[C@@](C)(OC)[C@](O)(CN3Cc4nccnc4C3)[C@H](C)O2)[C@H](C)[C@@H](O[C@@H]2O[C@H](C)C[C@H](N(C)C(=O)N(C)c3ccccc3)[C@H]2O)[C@](C)(O)C[C@@H](C)CN[C@H](C)[C@@H](O)[C@]1(C)O [Example J-16, 1-((2S,3R,4S,6R)-2-(((2R,3S,4R,5R,8R,10R,11R,12S,13S,14R)-13-(((2R,4R,5S,6S)-5-((5,7-dihydro-6H-pyrrolo[3,4-b]pyrazin-6-yl)methyl)-5-hydroxy-4-methoxy-4,6-dimethyltetrahydro-2H-pyran-2-yl)oxy)-2-ethyl-3,4,10-trihydroxy-3,5,8,10,12,14-hexamethyl-15-oxo-1-oxa-6-azacyclopentadecan-11-yl)oxy)-3-hydroxy-6-methyltetrahydro-2H-pyran-4-yl)-1,3-dimethyl-3-phenylurea] | 40 | > 64 | 
 | 19 | CC[C@H]1OC(=O)[C@H](C)[C@@H](O[C@H]2C[C@@](C)(OC)[C@](O)(CN3CC(N4CCCCC4)C3)[C@H](C)O2)[C@H](C)[C@@H](O[C@@H]2O[C@H](C)C[C@H](N(C)C(=O)N(C)c3ccccc3)[C@H]2O)[C@](C)(O)C[C@@H](C)CN[C@H](C)[C@@H](O)[C@]1(C)O [Example J-19, 1-((2S,3R,4S,6R)-2-(((2R,3S,4R,5R,8R,10R,11R,12S,13S,14R)-2-ethyl-3,4,10-trihydroxy-13-(((2R,4R,5S,6S)-5-hydroxy-4-methoxy-4,6-dimethyl-5-((3-(piperidin-1-yl)azetidin-1-yl)methyl)tetrahydro-2H-pyran-2-yl)oxy)-3,5,8,10,12,14-hexamethyl-15-oxo-1-oxa-6-azacyclopentadecan-11-yl)oxy)-3-hydroxy-6-methyltetrahydro-2H-pyran-4-yl)-1,3-dimethyl-3-phenylurea] | 16 | > 64 | 
 | 6 | CC[C@H]1OC(=O)[C@H](C)[C@@H](O[C@H]2C[C@@](C)(OC)[C@](O)(CN3CCc4ccccc4C3)[C@H](C)O2)[C@H](C)[C@@H](O[C@@H]2O[C@H](C)C[C@H](N(C)C(=O)N(C)c3ccccc3)[C@H]2O)[C@](C)(O)C[C@@H](C)CN[C@H](C)[C@@H](O)[C@]1(C)O [Example J-25, 1-((2S,3R,4S,6R)-2-(((2R,3S,4R,5R,8R,10R,11R,12S,13S,14R)-13-(((2R,4R,5S,6S)-5-((3,4-dihydroisoquinolin-2(1H)-yl)methyl)-5-hydroxy-4-methoxy-4,6-dimethyltetrahydro-2H-pyran-2-yl)oxy)-2-ethyl-3,4,10-trihydroxy-3,5,8,10,12,14-hexamethyl-15-oxo-1-oxa-6-azacyclopentadecan-11-yl)oxy)-3-hydroxy-6-methyltetrahydro-2H-pyran-4-yl)-1,3-dimethyl-3-phenylurea] | 16 |  | < 64

Further lines, the compound ahead of its results:

Structure (SMILES) | IC50 (TNF-α) [µM] | IC50 (TNF-α; Bos taurus) [µM] | IL-1β OS of LPS (IL-1β) [µM] | MIC [1, 2] [µg/mL] | MIC ([1]; read-out: MIC ≤64 μg/mL for at least one of the bacterial strains (flag * at Ex #)) [µg/mL]
CC[C@H]1OC(=O)[C@H](C)[C@@H](O[C@H]2C[C@@](C)(OC)[C@](C)(O)[C@H](C)O2)[C@H](C)[C@@H](O[C@@H]2O[C@H](C)C[C@H](N(C)C(=O)N(C)c3ccccc3)[C@H]2O)[C@](C)(O)C[C@@H](C)CN[C@H](C)[C@@H](O)[C@]1(C)O [Example B-1a, 1-((2S,3R,4S,6R)-2-(((2R,3S,4R,5R,8R,10R,11R,12S,13S,4R)-2-ethyl-3,4,10-trihydroxy-13-(((2R,4R,5R,6S)-5-hydroxy-4-methoxy-4,5,6-trimethyltetrahydro-2H-pyran-2-yl)oxy)-3,5,8,10,12,14-hexamethyl-11S-oxo-1-oxa-6-azacyclopentadecan-11-yl)oxy)-3-hydroxy-6-methyltetrahydro-2H-pyran-4-yl)-1,3-dimethyl-3-phenylurea] | 32 |  | 40 |  | 
CCCNC[C@]1(O)[C@H](C)O[C@@H](O[C@H]2[C@H](C)[C@@H](O[C@@H]3O[C@H](C)C[C@H](N(C)C(=O)N(C)Cc4ccccc4)[C@H]3O)[C@](C)(O)C[C@@H](C)CN[C@H](C)[C@@H](O)[C@](C)(O)[C@@H](CC)OC(=O)[C@@H]2C)C[C@@]1(C)OC [Example H-40, 1-benzyl-3-((2S,3R,4S,6R)-2-(((2R,3S,4R,5R,8R,10R,11R,12S,13S,14R)-2-ethyl-3,4,10-trihydroxy-13-(((2R,4R,5S,6S)-5-hydroxy-4-methoxy-4,6-dimethyl-5-((propylamino)methyl)tetrahydro-2H-pyran-2-yl)oxy)-3,5,8,10,12,14-hexamethyl-15-oxo-1-oxa-6-azacyclopentadecan-11-yl)oxy)-3-hydroxy-6-methyltetrahydro-2H-pyran-4-yl)-1,3-dimethylurea] |  | 45 | 40 | > 64 | 
CCCNC[C@]1(O)[C@H](C)O[C@@H](O[C@H]2[C@H](C)[C@@H](O[C@@H]3O[C@H](C)C[C@H](N(C)C(=O)N(C)c4cnccn4)[C@H]3O)[C@](C)(O)C[C@@H](C)CN[C@H](C)[C@@H](O)[C@](C)(O)[C@@H](CC)OC(=O)[C@@H]2C)C[C@@]1(C)OC [Example H-46, 1-((2S,3R,4S,6R)-2-(((2R,3S,4R,5R,8R,10R,11R,12S,13S,14R)-2-ethyl-3,4,10-trihydroxy-13-(((2R,4R,5S,6S)-5-hydroxy-4-methoxy-4,6-dimethyl-5-((propylamino)methyl)tetrahydro-2H-pyran-2-yl)oxy)-3,5,8,10,12,14-hexamethyl-15-oxo-1-oxa-6-azacyclopentadecan-11-yl)oxy)-3-hydroxy-6-methyltetrahydro-2H-pyran-4-yl)-1,3-dimethyl-3-(pyrazin-2-yl)urea] |  | > 250 | 100 |  | 
CCCNC[C@]1(O)[C@H](C)O[C@@H](O[C@H]2[C@H](C)[C@@H](O[C@@H]3O[C@H](C)C[C@H](N(C)C(=O)N(CC(F)(F)F)c4ccccc4)[C@H]3O)[C@](C)(O)C[C@@H](C)CN[C@H](C)[C@@H](O)[C@](C)(O)[C@@H](CC)OC(=O)[C@@H]2C)C[C@@]1(C)OC [Example H-54, 1-((2S,3R,4S,6R)-2-(((2R,3S,4R,5R,8R,10R,11R,12S,13S,14R)-2-ethyl-3,4,10-trihydroxy-13-(((2R,4R,5S,6S)-5-hydroxy-4-methoxy-4,6-dimethyl-5-((propylamino)methyl)tetrahydro-2H-pyran-2-yl)oxy)-3,5,8,10,12,14-hexamethyl-15-oxo-1-oxa-6-azacyclopentadecan-11-yl)oxy)-3-hydroxy-6-methyltetrahydro-2H-pyran-4-yl)-1-methyl-3-phenyl-3-(2,2,2-trifluoroethyl)urea] |  | 9 | 6 | > 64 | 
CCCNC[C@]1(O)[C@H](C)O[C@@H](O[C@H]2[C@H](C)[C@@H](O[C@@H]3O[C@H](C)C[C@H](N(C)C(=O)Nc4ccc(C#N)cc4)[C@H]3O)[C@](C)(O)C[C@@H](C)CN[C@H](C)[C@@H](O)[C@](C)(O)[C@@H](CC)OC(=O)[C@@H]2C)C[C@@]1(C)OC [Example H-77, 3-(4-cyanophenyl)-1-((2S,3R,4S,6R)-2-(((2R,3S,4R,5R,8R,10R,11R,12S,13S,14R)-2-ethyl-3,4,10-trihydroxy-13-(((2R,4R,5S,6S)-5-hydroxy-4-methoxy-4,6-dimethyl-5-((propylamino)methyl)tetrahydro-2H-pyran-2-yl)oxy)-3,5,8,10,12,14-hexamethyl-15-oxo-1-oxa-6-azacyclopentadecan-11-yl)oxy)-3-hydroxy-6-methyltetrahydro-2H-pyran-4-yl)-1-methylurea] |  | 30 | 200 | > 64 | 
CCCNC[C@]1(O)[C@H](C)O[C@@H](O[C@H]2[C@H](C)[C@@H](O[C@@H]3O[C@H](C)C[C@H](N(C)C(=O)N4CCc5ccccc54)[C@H]3O)[C@](C)(O)C[C@@H](C)CN[C@H](C)[C@@H](O)[C@](C)(O)[C@@H](CC)OC(=O)[C@@H]2C)C[C@@]1(C)OC [Example I-3, N-((2S,3R,4S,6R)-2-(((2R,3S,4R,5R,8R,10R,11R,12S,13S,14R)-2-ethyl-3,4,10-trihydroxy-13-(((2R,4R,5S,6S)-5-hydroxy-4-methoxy-4,6-dimethyl-5-((propylamino)methyl)tetrahydro-2H-pyran-2-yl)oxy)-3,5,8,10,12,14-hexamethyl-15-oxo-1-oxa-6-azacyclopentadecan-11-yl)oxy)-3-hydroxy-6-methyltetrahydro-2H-pyran-4-yl)-N-methylindoline-1-carboxamide] |  | 40 | 32 |  | 
